“Also recorded” adds a separate entry of the source.
Key:
[1] = test system: cortico-hippocampal cultures; test: NMDA-induced neuronal death (excitotoxicity) in cortico-hippocampal cultures, viability by vital staining; format: cell-based, rat; design: survival: dose or concentration left out as unconfirmed
Method: The viability of mature cortico-hippocampal cultures was analyzed 24 hr after […] NMDA exposure. Pretreatment with the different antisense oligonucleotides at the indicated concentrations was done 24 hr before the exposure to NMDA. Results are expressed as mean +/−SEM. Statistical analysis was performed by Student's t-test. *** denotes […], and other treatment groups were statistically non-significant (p<0.5).
NMDA-induced excitotoxicity was analyzed in cortico-hippocampal cultures maintained for 12-14 DIV similar to those already described in Example 1. To apply the excitotoxic insult, the cultures were rinsed twice with Locke's solution without Mg2+ and exposed to […] NMDA (Sigma) for 5 min. in the same Locke's solution or to Locke's solution alone as control. NMDA was washed out, the Mg2+ concentration was restored by 2 changes of Locke's +Mg2+ solution, and the original medium was replaced. Phase-bright bipolar cells, taken to represent living neurons, were counted 24 hr after the NMDA exposure. Alternatively, the vital staining method (Jones and Senft, 1985 An improved method to determine cell viability by simultaneous staining with fluorescein diacetate-propidium iodide. J Histochem Cytochem 33:77-79) was used to assess the extent of neuronal death and the protection by antisense oligonucleotide treatments. Similar results were obtained using either method. […]

[2] = test system: human neuroblastoma NB69 cells; test: Staurosporine-induced neuronal death in NB69 cells, viable cell count; format: cell-based; details: 200 nM staurosporine, viability 24 hr after exposure; 25 μM Ag1 in NB69 wt, or stable expression in NB69-Gas1 cells
Method: Columns 1 and 2. […] Columns 3 and 4. The viability was analyzed 24 hr after exposure to staurosporine (200 nM) in all the cases. Results are expressed as mean +/−SEM. Statistical analysis was performed by Student's t-test. *** denotes […], and other treatment groups were statistically non-significant (p<0.5).
Staurosporine-induced neuronal death was assayed in human neuroblastoma NB69 cells cultured in DMEM/HAM F12 medium supplemented with 10% fetal calf serum, 2 mM glutamine and 50 μg/ml gentamycin. Wild-type or stably transfected NB69 cells (2×10^4 cells/35 mm dish) were exposed to […] staurosporine (RBI). Phase-bright cells without signs of membrane or neurite degeneration were counted 24 hr later. Experiments were done in triplicate and repeated as least five times. Stably transfected NB69 cells that overexpress Gas1 in the […] orientation (NB69-Gas1) were prepared by the calcium phosphate precipitation method followed by two weeks of geneticin selection. Control cells were prepared in parallel by transfection with pCDNA3 vector alone (NB69-vector). Expression of the constructs in the cell clones were analyzed by northern blot analysis, and the clones having the highest expression were chosen for the experiments. Stable tranfectants were kept in the presence of 0.3 mg/ml of geneticin, which was removed before plating for the experiments.

Gas1 expression = Gas1 expression in brain after intraperitoneal kainic acid (Northern blot); format: in vivo, rat; details: 10 mg/kg intraperitoneal; hippocampus and olfactory cortex
Method: Already detectable induced Gas1 mRNA levels after kainic acid appear 6 hours after the beginning of treatment and were maintained for at least 10 days. In order to reveal Gas1 induction and to confirm neurone localization thereof in situ hybridization after administering kainic acid was performed. […] Similar results were observed after provoking an experimental ischemic process in gerbil brain by transient occlusion of both carotids, giving rise to rapid degeneration of a numerous population of pyramidal neurons of the CA1 layer of the hippocampus. It was observed that this massive neuron death was preceded by a significant rise of Gas1 mRNA and Gas1 protein levels (evaluated by immunocytochemistry) in those neurons. Likewise, it was also observed that neuron loss in all the cerebral cortex that is produced in rats in the perinatal period after exposure to ionizing radiation is preceded by high induction of Gas1 mRNA.

[3] = Channel formation of purified Gas1 protein in artificial bilayers; format: biochemical; details: purified protein expressed in bacteria (pTrcHis)
Description: Initially, Gas1 expression has been related to the G0 phase of cell cycle arrest in rat fibroblasts deprived of serum (Del Sal et al., 1992). […] Up to now it had been described that Gas1 protein was a cell membrane protein and as of its amino acid sequence the presence of two transmembrane segments had been proposed and a hypothetical RGD domain that may interact with integrin, the only domain described that relates its structure to its arrest function of the cell cycle (Schneider et al.). The present inventors have succeeded in overexpressing the Gas1 protein by means of a prokaryotic vector (pTrcHis) in bacteria for subsequent purification in sufficient amounts to carry out protein studies. […] Aside from the already described location of this protein in the cell membrane we have located the presence of Gas1 in the perinuclear and mitochondrial membrane. It must be pointed out that Bcl-2 and Bax, proteins related to the […], are also located in the mitochondrial membrane and are capable of forming ionic channels. This common location of these proteins makes compatible a possible functional interaction of Gas1 with Bax type proapoptotic proteins and Bcl-2 and Bcl XL antiapoptotic proteins.

Question: For “5′-TCCTCATCCATCCAT-3′ (DNA, linkages s2 o10 s2 (s phosphorothioate, o phosphodiester), methylation of C not given here) [AG1, 15-mer Gas1 antisense oligonucleotide spanning the start site of translation, protected at each end by two phosphorothioate groups]”, which “effect on NMDA-induced neuronal death” value ([1]; 25 μM Ag1, pretreatment 24 hr before 500 mM NMDA, viability 24 hr after exposure) is on record?
Answer: The value was “blocks NMDA-induced neuronal death”.

Question: What about the survival ([1]; NMDA induced neuron death in primary neuron cultures, FIG. 2a) of the same molecule?
Answer: Its survival is roughly 100%.

Question: And the “effect on staurosporine-induced reduction in survival” value [2]?
Answer: The value was “prevents the reduction in survival; also recorded: total blocking”.

Question: Which “induction of Gas1 expression” value (Gas1 expression) does the source give for `C=C(C)[C@H]1CN[C@H](C(=O)O)[C@H]1CC(=O)O` [kainic acid] here?
Answer: The value was “strong induction”.

B1: Gas1 protein: purified Gas1 protein overexpressed by a prokaryotic vector (pTrcHis) in bacteria (protein)
chain: LAHGRRLICWQALLQCQGEPECSYAYNQYAEACAPVLAQHGGGDAPGAAAAAFPASAASFSSRWRCPSHCISALIQLNHTRRGPALEDCDCAQDENCKSTKRAIEPCLPRTSGGGAGGPGAGGVMGCTEARRRCDRDSRCNLALSRYLTYCGKVFNGLRCTDECRTVIEDMLAMPKAALLNDCVCDGLERPICESVKENMARLCFGAELGNGPGSSGSDGGLDDYYDEDYDDEQRTGGAGGEQPLDDDDGVPHPPRPGSGAAASGGRGDLPYGPGRRS
Question: For B1, which channel formation [3] is on record?
Answer: Its channel formation is “capable of inserting in and forming cationic channels”.

— US20080085861A1, “GAS1 POLYPEPTIDES” (priority 1999, published 2008)
